How the values were obtained:
[1] = Plasma pharmacokinetics in mice after single oral 50 mg/kg M-III; format: in vivo; conditions: male C57BL/6 mice
Method: (§1) To the plasma pharmacokinetics of 5-[[4-[2-[5-acetylpyridin-2-yl]ethoxy]phenyl]methyl]-1,3-thiazolidine-2,4-dione (M-III) and 5-[[4-[2-[5-(1-hydroxyethyl)pyridin-2-yl]ethoxy]phenyl]methyl]-1,3-thiazolidine-2,4-dione (M-IV) were determined in male C57BL/6 mice following a single oral (50 mg/kg) dose administration of M-III.
Nine animals were administered orally with suspension formulation of M-III in 0.1% Tween 80 and 99.9% NaCMC in water (0.5% w/v) at 50 mg/kg dose. The dosing volume administered was 10 mL/kg. The blood samples were collected from set of three mice at each time point in labeled micro centrifuge tube containing K2EDTA solution as anticoagulant at Pre-dose, 0.25, 0.5, 1, 2, 4, 8, 12 and 24 hr. Plasma samples were separated by centrifugation of whole blood and stored below −70±10° C. until bioanalysis. All samples were processed for analysis by protein precipitation using acetonitrile and analyzed with fit-for-purpose LC-MS/MS method (LLOQ=2.46 ng/mL for M-III and 2.49 ng/mL for M-IV). Pharmacokinetic parameters were calculated using the non-compartmental analysis tool of Phoenix WinNonlin® (Version 6.3).

[2] = Plasma pharmacokinetics in mice after single oral 4.5 mg/kg M-III or MIN-102; format: in vivo, male C57BL/6 mice
Method: as §1, with “The” for “To the”, “(4.5” for “(50”, “dose” for “dose administration”, “either M-III or MIN-102 (5-[[4-[2-[5-(1-hydroxyethyl)pyridin-2-yl]ethoxy]phenyl]methyl]-1,3-thiazolidine-2,4-dione hydrochloride).” for “M-III.”
Animals were administered orally with a suspension formulation of either M-III or MIN-102 in 0.1% Tween 80 and 99.9% NaCMC in water (0.5% w/v) at 4.5 mg/kg dose. The blood samples were collected from a set of three mice at each time point in labeled micro centrifuge tubes containing K2EDTA solution as anticoagulant at Pre-dose, 0.25, 0.5, 1, 2, 4, 8, 12 and 24 hr. Plasma samples were separated by centrifugation of whole blood and stored below −70±10° C. until bioanalysis. All samples were processed for analysis by protein precipitation using acetonitrile and analyzed with fit-for-purpose LC-MS/MS method (LLOQ=2.46 ng/mL for M-III and 2.49 ng/mL for M-IV). Pharmacokinetic parameters were calculated using the non-compartmental analysis tool of Phoenix WinNonlin® (Version 6.3).

[3] = Plasma pharmacokinetics in dogs after single oral 3 mg/kg M3 or MIN-102; format: in vivo, male Beagle dogs
Method: (§2) The plasma pharmacokinetics of 5-[[4-[2-[5-acetylpyridin-2-yl]ethoxy]phenyl]methyl]-1,3-thiazolidine-2,4-dione (M-III; M3) and 5-[[4-[2-[5-(1-hydroxyethyl)pyridin-2-yl]ethoxy]phenyl]methyl]-1,3-thiazolidine-2,4-dione (M-IV; M4) were determined in male Beagle dogs following a single oral (3 mg/kg) dose administration of either M3 or MIN-102.
Six animals were dosed orally with a suspension formulation of either M-III or MIN-102 in 0.1% Tween 80 and 99.9% CMC (aqueous carboxymethylcellulose 0.5% w/v solution in RO water) at 3 mg/kg. Blood samples (0.5 ml) were collected from the saphenous or cephalic or jugular veins of dogs at predose, 0.5, 1, 2, 4, 6 and 24 hr. Samples were collected into labeled micro-tubes, containing K2EDTA solution (20% K2EDTA solution) as an anticoagulant. Plasma was immediately harvested from the blood by centrifugation at 4000 rpm for 10 min and stored below −70° C. until bioanalysis.
(§3) Concentrations of M3 and M-IV in dog plasma samples were determined by fit-for-purpose LC-MS/MS method. Non-Compartmental-Analysis module in Phoenix WinNonlin® (Version 6.3) was used to assess the pharmacokinetic parameters. Peak plasma concentrations (Cmax) and time for the peak plasma concentrations (Tmax) were the 59 observed values. The areas under the concentration time curve (AUClast and AUCinf) were calculated by linear trapezoidal rule.

[4] = tested on: MDR1; test: MDCKII monolayer assay; format: in vitro ADME; conditions: dog, MDCK; after 120 minutes, MDCKII-MDR1 and MDCKII-Mock; loss due to conversion to M-IV
Method: The monolayer assays were performed using parental and MDR1 transfected MDCKII cell monolayers. MDCKII and MDCKII-MDR1 cells were cultured in Dulbecco's Modified Eagle's Medium with 4.5 g/L glucose (DMEM) supplemented with 10% (v/v) fetal bovine serum (FBS) at 37±1° C. in an atmosphere of 95:5 air:CO2 in cell culture flasks prior to seeding into 24-transwell inserts. Transfected and parental MDCKII cells were cultured on the inserts with 400 μL medium per well on the apical side and 25 mL in a single-well receiver tray for all 24 wells on the basolateral side, for 96 hours. Medium was changed 24 hours before the experiment. Trans-epithelial electric resistance (TEER) of each well was measured to confirm the confluency of the monolayers prior to the experiments. Permeability incubations were carried out in Hank's Buffered Salt Solution (HBSS) at 37±1° C. Apical to basolateral permeability of Lucifer yellow (LY) was assessed as a low permeability control and antipyrine was as a high permeability compound. […] LY samples were analyzed by measuring fluorescence with the following wavelengths: excitation—485 nm emission—520 nm, while the antipyrine samples were analyzed with LC-MS/MS.
As another follow-up, MDCKII-MDR1 substrate experiment was repeated at […] M-III. The amounts of M-III and M-IV were determined at the end of the incubation time. […]

[5] = Plasma pharmacokinetics in rats after single oral 10 mg/kg M-III or MIN-102; format: in vivo, male Sprague Dawley rats
Method: as §2, with “male Sprague Dawley” for “male Beagle dogs”, “oral (10” for “oral (3”, “either M-III” for “either M3”
Six animals were dosed orally with a suspension formulation of either M-III or MIN-102 in 0.1% Tween 80 and 99.9% CMC (0.5% w/v solution in RO water) at 10 mg/kg.
The dosing volume administered was 10 mL/kg. Blood samples (approximately 60 μL) were collected from retro-orbital plexus of three rats at 0.08, 0.25, 0.5, 1, 2, 4, 8, 12 and 24 hr (IV) and at predose, 0.25, 0.5, 1, 2, 4, 8, 12 and 24 hr. Samples were collected into labeled micro-tubes, containing K2EDTA solution (20% K2EDTA solution) as an anticoagulant. Plasma was immediately harvested from the blood by centrifugation at 4000 rpm for 10 min at 4±2° C. and stored below −70° C. until bioanalysis.
as §3, with “M-III” for “M3”, “rat” for “dog”, “(Cax)” for “(Cmax)”, “the” for “the 59”

[6] = as described in WO 2015/150476 A1; cited from earlier work

With `CC(=O)c1ccc(CCOc2ccc(CC3SC(=O)NC3=O)cc2)nc1` (stereo not drawn) [M-III, 5-[[4-[2-[5-acetylpyridin-2-yl]ethoxy]phenyl]methyl]-1,3-thiazolidine-2,4-dione] the “share of total exposure (AUC)” value [1] was “about 25%”, the “share of total exposure (AUC)” value ([2]; after single oral 4.5 mg/kg M-III, male mice) was about 27% and the “share of total exposure (AUC)” value ([2]; after single oral 4.5 mg/kg MIN-102, male mice) was “about 38%”. The “share of total exposure (AUC)” value ([3]; after single oral 3 mg/kg M3, male dogs) was about 16%, the “share of total exposure (AUC)” value ([3]; after single oral 3 mg/kg MIN-102, male dogs) was “about 8%” and the recovery at 120 min [4] was 30 to 60%. The “share of total exposure (AUC)” value ([5]; after single oral 10 mg/kg M-III, male rats) was about 53%, the “share of total exposure (AUC)” value ([5]; after single oral 10 mg/kg MIN-102, male rats) was “about 42%” and the blood-brain-barrier penetration [6] was “does not penetrate the BBB”.

From US20240091210A1, “USE OF 5-[[4-[2-[5-ACETYLPYRIDIN-2-YL]ETHOXY]BENZYL]-1,3-THIAZOLIDINE-2,4-DIONE AND ITS SALTS” (Minoryx Therapeutics S.L., priority 2018, published 2024)
